Reference: patent US12404262B2 (priority 2021, dated 2025)

Settings: 1.0% DMSO, 24-hour incubation at ambient temperature, maximum theoretical 100 μM; for pH 2 solubility: 0.1N HCl, first value of the cell; for pH 7 solubility: 1×PBS buffer (pH 7.4), second value of the cell

| SMILES | pH 2 solubility [μM] | pH 7 solubility [μM] |
| --- | --- | --- |
| C[C@@H](O)[C@H](NC(=O)N(c1nn(CC(F)(F)F)c2c(-c3ccc(C#CC(C)(C)S(C)(=O)=O)nc3[C@H](Cc3cc(F)cc(F)c3)NC(=O)Cn3nc(C(F)(F)F)c4c3C(F)(F)[C@@H]3C[C@H]43)ccc(Cl)c12)S(C)(=O)=O)C(=O)O [Compound 61, ((4-chloro-7-(2-((S)-1-(2-((3bS,4aR)-5,5-difluoro-3-(trifluoromethyl)-3b,4,4a,5-tetrahydro-1H-cyclopropa[3,4]cyclopenta[1,2-c]pyrazol-1-yl)acetamido)-2-(3,5-difluorophenyl)ethyl)-6-(3-methyl-3-(methylsulfonyl)but-1-yn-1-yl)pyridin-3-yl)-1-(2,2,2-trifluoroethyl)-1H-indazol-3-yl)(methylsulfonyl)carbamoyl)-L-threonine] | 1 | 9 |
| C[C@@H](OP(=O)(O)O)[C@H](NC(=O)N(c1nn(CC(F)(F)F)c2c(-c3ccc(C#CC(C)(C)S(C)(=O)=O)nc3[C@H](Cc3cc(F)cc(F)c3)NC(=O)Cn3nc(C(F)(F)F)c4c3C(F)(F)[C@@H]3C[C@H]43)ccc(Cl)c12)S(C)(=O)=O)C(=O)O [Compound 62, N-((4-chloro-7-(2-((S)-1-(2-((3bS,4aR)-5,5-difluoro-3-(trifluoromethyl)-3b,4,4a,5-tetrahydro-1H-cyclopropa[3,4]cyclopenta[1,2-c]pyrazol-1-yl)acetamido)-2-(3,5-difluorophenyl)ethyl)-6-(3-methyl-3-(methylsulfonyl)but-1-yn-1-yl)pyridin-3-yl)-1-(2,2,2-trifluoroethyl)-1H-indazol-3-yl)(methylsulfonyl)carbamoyl)-O-phosphono-L-threonine] | 4 | 14 |
| CC(C)(C#Cc1ccc(-c2ccc(Cl)c3c(N(C(=O)N[C@@](C)(CC(=O)O)C(=O)O)S(C)(=O)=O)nn(CC(F)(F)F)c23)c([C@H](Cc2cc(F)cc(F)c2)NC(=O)Cn2nc(C(F)(F)F)c3c2C(F)(F)[C@@H]2C[C@H]32)n1)S(C)(=O)=O [Compound 65, (S)-2-(3-(4-chloro-7-(2-((S)-1-(2-((3bS,4aR)-5,5-difluoro-3-(trifluoromethyl)-3b,4,4a,5-tetrahydro-1H-cyclopropa[3,4]cyclopenta[1,2-c]pyrazol-1-yl)acetamido)-2-(3,5-difluorophenyl)ethyl)-6-(3-methyl-3-(methylsulfonyl)but-1-yn-1-yl)pyridin-3-yl)-1-(2,2,2-trifluoroethyl)-1H-indazol-3-yl)-3-(methylsulfonyl)ureido)-2-methylsuccinic acid] | 1 | 52 |
| CC(C)(C#Cc1ccc(-c2ccc(Cl)c3c(N(C(=O)N[C@H](CC(=O)O)C(=O)O)S(C)(=O)=O)nn(CC(F)(F)F)c23)c([C@H](Cc2cc(F)cc(F)c2)NC(=O)Cn2nc(C(F)(F)F)c3c2C(F)(F)[C@@H]2C[C@H]32)n1)S(C)(=O)=O [Compound 70, ((4-chloro-7-(2-((S)-1-(2-((3bS,4aR)-5,5-difluoro-3-(trifluoromethyl)-3b,4,4a,5-tetrahydro-1H-cyclopropa[3,4]cyclopenta[1,2-c]pyrazol-1-yl)acetamido)-2-(3,5-difluorophenyl)ethyl)-6-(3-methyl-3-(methylsulfonyl)but-1-yn-1-yl)pyridin-3-yl)-1-(2,2,2-trifluoroethyl)-1H-indazol-3-yl)(methylsulfonyl)carbamoyl)-D-aspartic acid] | 1 | 58 |
| CN(C(=O)N(c1nn(CC(F)(F)F)c2c(-c3ccc(C#CC(C)(C)S(C)(=O)=O)nc3[C@H](Cc3cc(F)cc(F)c3)NC(=O)Cn3nc(C(F)(F)F)c4c3C(F)(F)[C@@H]3C[C@H]43)ccc(Cl)c12)S(C)(=O)=O)[C@@H](CC(=O)O)C(=O)O [Compound 71, N-((4-chloro-7-(2-((S)-1-(2-((3bS,4aR)-5,5-difluoro-3-(trifluoromethyl)-3b,4,4a,5-tetrahydro-1H-cyclopropa[3,4]cyclopenta[1,2-c]pyrazol-1-yl)acetamido)-2-(3,5-difluorophenyl)ethyl)-6-(3-methyl-3-(methylsulfonyl)but-1-yn-1-yl)pyridin-3-yl)-1-(2,2,2-trifluoroethyl)-1H-indazol-3-yl)(methylsulfonyl)carbamoyl)-N-methyl-L-aspartic acid] | 1 | 15 |
| CC(C)(C#Cc1ccc(-c2ccc(Cl)c3c(N(C(=O)NCC(=O)O)S(C)(=O)=O)nn(CC(F)(F)F)c23)c([C@H](Cc2cc(F)cc(F)c2)NC(=O)Cn2nc(C(F)(F)F)c3c2C(F)(F)[C@@H]2C[C@H]32)n1)S(C)(=O)=O [Compound 72, ((4-chloro-7-(2-((S)-1-(2-((3bS,4aR)-5,5-difluoro-3-(trifluoromethyl)-3b,4,4a,5-tetrahydro-1H-cyclopropa[3,4]cyclopenta[1,2-c]pyrazol-1-yl)acetamido)-2-(3,5-difluorophenyl)ethyl)-6-(3-methyl-3-(methylsulfonyl)but-1-yn-1-yl)pyridin-3-yl)-1-(2,2,2-trifluoroethyl)-1H-indazol-3-yl)(methylsulfonyl)carbamoyl)glycine] | 1 | 9 |

Continued, values first:

| pH 2 solubility [μM] | pH 7 solubility [μM] | SMILES |
| --- | --- | --- |
| 72 | 16 | CC(C)(C#Cc1ccc(-c2ccc(Cl)c3c(N(C(=O)NCCN4CCNCC4)S(C)(=O)=O)nn(CC(F)(F)F)c23)c([C@H](Cc2cc(F)cc(F)c2)NC(=O)Cn2nc(C(F)(F)F)c3c2C(F)(F)[C@@H]2C[C@H]32)n1)S(C)(=O)=O [Compound 73, N—((S)-1-(3-(4-chloro-3-(N-((2-(piperazin-1-yl)ethyl)carbamoyl)methylsulfonamido)-1-(2,2,2-trifluoroethyl)-1H-indazol-7-yl)-6-(3-methyl-3-(methylsulfonyl)but-1-yn-1-yl)pyridin-2-yl)-2-(3,5-difluorophenyl)ethyl)-2-((3bS,4aR)-5,5-difluoro-3-(trifluoromethyl)-3b,4,4a,5-tetrahydro-1H-cyclopropa[3,4]cyclopenta[1,2-c]pyrazol-1-yl)acetamide] |
| 72 | 24 | CC(C)(C#Cc1ccc(-c2ccc(Cl)c3c(N(C(=O)NCCN4CCN(C(=N)N)CC4)S(C)(=O)=O)nn(CC(F)(F)F)c23)c([C@H](Cc2cc(F)cc(F)c2)NC(=O)Cn2nc(C(F)(F)F)c3c2C(F)(F)[C@@H]2C[C@H]32)n1)S(C)(=O)=O [Compound 74, N—((S)-1-(3-(3-(N-((2-(4-carbamimidoylpiperazin-1-yl)ethyl)carbamoyl)methylsulfonamido)-4-chloro-1-(2,2,2-trifluoroethyl)-1H-indazol-7-yl)-6-(3-methyl-3-(methylsulfonyl)but-1-yn-1-yl)pyridin-2-yl)-2-(3,5-difluorophenyl)ethyl)-2-((3bS,4aR)-5,5-difluoro-3-(trifluoromethyl)-3b,4,4a,5-tetrahydro-1H-cyclopropa[3,4]cyclopenta[1,2-c]pyrazol-1-yl)acetamide] |
| 16 | 13 | CN(CCNC(=N)N)C(=O)N(c1nn(CC(F)(F)F)c2c(-c3ccc(C#CC(C)(C)S(C)(=O)=O)nc3[C@H](Cc3cc(F)cc(F)c3)NC(=O)Cn3nc(C(F)(F)F)c4c3C(F)(F)[C@@H]3C[C@H]43)ccc(Cl)c12)S(C)(=O)=O [Compound 75, N—((S)-1-(3-(4-chloro-3-(N-((2-guanidinoethyl)(methyl)carbamoyl)methylsulfonamido)-1-(2,2,2-trifluoroethyl)-1H-indazol-7-yl)-6-(3-methyl-3-(methylsulfonyl)but-1-yn-1-yl)pyridin-2-yl)-2-(3,5-difluorophenyl)ethyl)-2-((3bS,4aR)-5,5-difluoro-3-(trifluoromethyl)-3b,4,4a,5-tetrahydro-1H-cyclopropa[3,4]cyclopenta[1,2-c]pyrazol-1-yl)acetamide] |
| 21 | 1 | CC(C)(C#Cc1ccc(-c2ccc(Cl)c3c(N(C(=O)NCCNC(=O)C(=O)O)S(C)(=O)=O)nn(CC(F)(F)F)c23)c([C@H](Cc2cc(F)cc(F)c2)NC(=O)Cn2nc(C(F)(F)F)c3c2C(F)(F)[C@@H]2C[C@H]32)n1)S(C)(=O)=O [Compound 77, 2-((2-(3-(4-chloro-7-(2-((S)-1-(2-((3bS,4aR)-5,5-difluoro-3-(trifluoromethyl)-3b,4,4a,5-tetrahydro-1H-cyclopropa[3,4]cyclopenta[1,2-c]pyrazol-1-yl)acetamido)-2-(3,5-difluorophenyl)ethyl)-6-(3-methyl-3-(methylsulfonyl)but-1-yn-1-yl)pyridin-3-yl)-1-(2,2,2-trifluoroethyl)-1H-indazol-3-yl)-3-(methylsulfonyl)ureido)ethyl)amino)-2-oxoacetic acid] |
| 14 | 22 | CC(C)(C#Cc1ccc(-c2ccc(Cl)c3c(N(C(=O)N(CC(=O)O)CC(=O)O)S(C)(=O)=O)nn(CC(F)(F)F)c23)c([C@H](Cc2cc(F)cc(F)c2)NC(=O)Cn2nc(C(F)(F)F)c3c2C(F)(F)[C@@H]2C[C@H]32)n1)S(C)(=O)=O [Compound 78, 2,2′-(((4-chloro-7-(2-((S)-1-(2-((3bS,4aR)-5,5-difluoro-3-(trifluoromethyl)-3b,4,4a,5-tetrahydro-1H-cyclopropa[3,4]cyclopenta[1,2-c]pyrazol-1-yl)acetamido)-2-(3,5-difluorophenyl)ethyl)-6-(3-methyl-3-(methylsulfonyl)but-1-yn-1-yl)pyridin-3-yl)-1-(2,2,2-trifluoroethyl)-1H-indazol-3-yl)(methylsulfonyl)carbamoyl)azanediyl)diacetic acid] |
| 59 | 14 | CN(CCCN)C(=O)N(c1nn(CC(F)(F)F)c2c(-c3ccc(C#CC(C)(C)S(C)(=O)=O)nc3[C@H](Cc3cc(F)cc(F)c3)NC(=O)Cn3nc(C(F)(F)F)c4c3C(F)(F)[C@@H]3C[C@H]43)ccc(Cl)c12)S(C)(=O)=O [Compound 79, N—((S)-1-(3-(3-(N-((3-aminopropyl)(methyl)carbamoyl)methylsulfonamido)-4-chloro-1-(2,2,2-trifluoroethyl)-1H-indazol-7-yl)-6-(3-methyl-3-(methylsulfonyl)but-1-yn-1-yl)pyridin-2-yl)-2-(3,5-difluorophenyl)ethyl)-2-((3bS,4aR)-5,5-difluoro-3-(trifluoromethyl)-3b,4,4a,5-tetrahydro-1H-cyclopropa[3,4]cyclopenta[1,2-c]pyrazol-1-yl)acetamide] |
